According to patent US9023876B2, “Compounds and methods for regulating integrins” (Adhaere Pharmaceuticals, Inc., priority 2010, dated 2015):

What was measured:
[1] = target: T1, integrin CD11b/CD18 (Homo sapiens, UniProt P11215); experiment: K562 CD11b/CD18 cell adhesion to immobilized iC3b; assay type: cell-based; details: increasing amounts of compound
T1 construct: expressed in transfected cells; host or cells: K562
Procedure: Cell adhesion assays with immobilized ligands were performed as previously described. Assays with all different K562 cell lines (K562, K562 CD11b/CD18 and K562 E320A) were performed in an identical fashion. Briefly, 384-well Highbind microtiter plates were coated with a 30 μL solution of ligand in Phosphate Buffered Saline, pH 7.4 containing 1 mM each of Ca^2+ and Mg^2+ ions (PBS^++) overnight at 4° C. Ligand Fg was coated at a concentration of […] and iC3b at […]. Heterodimer specific mAb IB4 (ascites) was coated at a 1:100 dilution. Subsequently, the non-specific sites in the wells were blocked by incubation with 1% non-fat milk in Tris Buffered Saline (TBS), pH 7.4, at room temperature for 1 h, except for the neutrophil assay, where the wells were blocked with TBS containing 1% gelatin. Next, the wells were washed three times with TBS. K562 cells were suspended in the assay buffer (TBS containing 1 mM each of Ca^2+ and Mg^2+ ions (TBS^++)) and were transferred to the ligand-coated wells (30,000 cells/well). Stock solution of the leukadherin family of small molecule agonists was prepared by dissolving the compounds in DMSO at a concentration of 2-10 mM. Final concentration of DMSO in the assay was approximately 1%. […] Cells remaining adherent were fixed using formaldehyde and were quantitated using imaging microscopy, as previously described. […]

[2] = system: Tg(mpx::eGFP) zebrafish larvae; experiment: Zebrafish tailfin injury assay; assay type: in vivo; details: 4 h post injury; vehicle 34.6±4.5
Procedure: Transgenic Tg(mpx::eGFP) were maintained according to standard protocols. Tailfin injury in three days post fertilization (dpf) larvae was performed as described. Larvae were anesthetized by immersion in E3 with […] tricane, and tail was completely transected with a sterile microdissection scalpel in accordance with the approved protocols and were recovered for the indicated time points. Zebrafish larvae (3 dpf) were treated with compounds as described (Ref). Briefly, small molecule compounds were administered by immersing the larvae in a solution of the compounds in E3. The final concentration of DMSO was kept at <1%. For the assessment of the inflammatory response, injured larvae were analyzed at 4 h post-injury. For the post-wash assay, uninjured larvae incubated with the compounds in E3 for 4-8 h, washed into E3 and injured. Larvae were analyzed using a Leica DMI6000B microscope and an Hamamatsu Orca-3CCD camera using Volocity. Excitation was performed using the laser at 488 nm and the images were analyzed using Volocity. The number of fluorescent neutrophils at the site of inflammation were counted by eye in a blinded fashion. […]

[3] = target: T1, integrin CD11b/CD18; experiment: Flow cytometry, binding of activation sensitive mAb24 to K562 CD11b/CD18 cells; assay type: cell-based
Procedure: Flow cytometric analysis of K562 cells for integrin CD11b/CD18 cell surface expression was performed using published protocols. Briefly, cells were suspended in the assay buffer (TBS containing 1 mM each of Ca^2+ and Mg^2+ ions (TBS^++) and 0.1% BSA). […] Subsequently, the cells were washed three times with the assay buffer and incubated with goat anti-mouse-APC (1 mg/ml, Invitrogen) for 20 min at 4° C. Cells were washed twice with the assay buffer and analyzed using FACSCaliber flow cytometer (BD Biosciences, CA), counting at least 10,000 events. Data was analyzed using the CellQuest software (BD Biosciences). Assays were performed in triplicate and the data shown is from one of at least three independent experiments.
To identify binding site of LA1-3, which are predicted to bind the ligand-binding αA (or α1) domain in CD11b/CD18 [33, 39, 76], we generated K562 cells stably expressing mutant integrin CD11bE320A/CD18 (K562 E320A). The highly conserved residue E320 in the linker following the activation-sensitive α7-helix in the CD11b A-domain (αA-domain) acts as an endogenous ligand of the CD18 vWFA-domain (βA- or I-domain). The E320A mutation abolishes agonist Mn^2+-ion mediated increase in ligand-binding by CD11b/CD18. However, stabilization of αA in a high-affinity conformation by additional activating mutations overcomes this deficit and induces ligand binding in the E320A mutant. […]

[4] = system: mice; experiment: Anti-glomerular basement membrane (anti-GBM) nephritis model; assay type: in vivo, mouse
Source text: To determine whether CD11b/CD18 agonists have any therapeutic advantages over antagonists, we performed a head-to-head comparison between a well-characterized CD11b/CD18 antagonist (anti-CD11b antibody M1/70, [82]) and LA1 using an established mouse model of kidney disease, the anti-glomerular basement membrane (anti-GBM) nephritis. This model is characterized by neutrophil infiltration that mediates urinary protein loss, including albumin. In line with an important role for CD11b in this disease, CD11b^−/− mice and anti-CD11b mAb treated rats show decreased leukocyte infiltration and a protection from proteinuria. Here, induction of disease in mice led to peak influx of neutrophils and maximal proteinuria at day 3.

[5] = system: WT mouse macrophages and neutrophils; experiment: Secretion of pro-inflammatory cytokines by stimulated WT mouse macrophages and neutrophils; assay type: cell-based; details: cells stimulated with LPS, TNFalpha or ILbeta
Source text: We surmised that leukadherins may also suppress pro-inflammatory cytokine express-ion in leukocytes. […] In an experiment to test the effect of leukadherin treatment on secretion of pro-inflammatory cytokines by leukocytes, we stimulated WT mouse macrophages and neutrophils with LPS, TNFalpha or ILbeta in the absence or presence of two different concentrations of agonist LA1 and measured levels of pro-inflammatory cytokine in the cell supernatant. […] Leukadherins decrease secretion of pro-inflammatory factors, including microparticles, by beta2-integrin expressing cells. Additionally, they increase secretion of anti-inflammatory factors, such as IL-10.

Question: Which results are given for O=C(O)c1ccc(-c2ccc(/C=C3\SC(=S)N(Cc4ccccc4)C3=O)o2)cc1 [LA1]?
Answer: K562 CD11b/CD18 cells adhering to immobilized iC3b [1]: increase binding of CD11b/CD18 to iC3b in a dose-dependent fashion; neutrophil accumulation in the zebrafish tailfin (number of neutrophils) [2]: 15.6±1.7; binding of activation sensitive mAb24 to K562 CD11b/CD18 cells [3]: increase; number of infiltrated neutrophils (neutrophil influx) [4]: significant and maximal decrease; proteinuria [4]: significant and maximal decrease; secretion of inflammatory factors (IL-6, TNFa, IL-1b, IFNg, MMP-9, soluble uPAR) in supernatant [5]: significantly decreased
